Assays:
AZD5153 = compound: COc1nnc2ccc(N3CCC(c4ccc(OCCN5CCN(C)C(=O)[C@H]5C)cc4)CC3)nn12 [AZD5153]; conditions: max 1 µM
Outline: (§1)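 Cancer cell lines were plated in 1536-well plates in 7.5 μl of DMEM/F12 or RPMI with 10% FBS and kept 24 hours at 37°C and 5% CO2 before 72 hours of dosing, with final DMSO typically 0.2%. CellTiter-Glo 2.0 luminescence measured viability, scaled between blank-well and DMSO-well means. Dose responses were fitted to a two-parameter logistic curve with a non-linear mixed effects model. This fit gives the single-agent IC50.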

Trametinib = compound: CC(=O)Nc1cccc(-n2c(=O)n(C3CC3)c(=O)c3c(Nc4ccc(I)cc4F)n(C)c(=O)c(C)c32)c1 [Trametinib]; conditions: max 1 µM
Outline: as §1

Venetoclax = compound: CC1(C)CCC(CN2CCN(c3ccc(C(=O)NS(=O)(=O)c4ccc(NCC5CCOCC5)c([N+](=O)[O-])c4)c(Oc4cnc5[nH]ccc5c4)c3)CC2)=C(c2ccc(Cl)cc2)C1 [Venetoclax]; conditions: max 1 µM
Outline: as §1

SG3199 = compound: CC1=CN2[C@@H](C1)C=NC3=CC(=C(C=C3C2=O)OC)OCCCCCOC4=C(C=C5C(=C4)N=C[C@@H]6CC(=CN6C5=O)C)OC [SG3199]; conditions: max 0.001 µM
Outline: as §1

AZD5991 = compound: Cc1c2c(nn1C)CSCc1cc(n(C)n1)CSc1cc(c3ccccc3c1)OCCCc1c(C(=O)O)n(C)c3c-2c(Cl)ccc13 [AZD5991]; conditions: max 1 µM
Outline: as §1

Alisertib = compound: COc1cc(Nc2ncc3c(n2)-c2ccc(Cl)cc2C(c2c(F)cccc2OC)=NC3)ccc1C(=O)O [Alisertib]; conditions: max 10 µM
Outline: as §1

AZD6738 = compound: C[C@@H]1COCCN1C2=NC(=NC(=C2)C3(CC3)[S@](=N)(=O)C)C4=C5C=CNC5=NC=C4 [AZD6738]; conditions: max 10 µM
Outline: as §1

AZD2811 = compound: CCN(CCO)CCCOc1ccc2c(Nc3cc(CC(=O)Nc4cccc(F)c4)[nH]n3)ncnc2c1 [AZD2811]; conditions: max 1 µM
Outline: as §1

Taselisib = compound: Cc1nc(-c2cn3c(n2)-c2ccc(-c4cnn(C(C)(C)C(N)=O)c4)cc2OCC3)n(C(C)C)n1 [Taselisib]; conditions: max 10 µM
Outline: as §1

Lapatinib = compound: CS(=O)(=O)CCNCc1ccc(-c2ccc3ncnc(Nc4ccc(OCc5cccc(F)c5)c(Cl)c4)c3c2)o1 [Lapatinib]; conditions: max 10 µM
Outline: as §1

AZD1390 = compound: CC(C)n1c(=O)n(C)c2cnc3cc(F)c(-c4ccc(OCCCN5CCCCC5)nc4)cc3c21 [AZD1390]; conditions: max 0.3 µM
Outline: as §1

Doxorubicin = compound: COc1cccc2c1C(=O)c1c(O)c3c(c(O)c1C2=O)C[C@@](O)(C(=O)CO)C[C@@H]3O[C@H]1C[C@H](N)[C@H](O)[C@H](C)O1 [Doxorubicin]; conditions: max 1 µM
Outline: as §1

Gefitinib = compound: COc1cc2ncnc(Nc3ccc(F)c(Cl)c3)c2cc1OCCCN1CCOCC1 [Gefitinib]; conditions: max 10 µM
Outline: as §1

Prexasertib = compound: COc1cccc(OCCCN)c1-c1cc(Nc2cnc(C#N)cn2)n[nH]1 [Prexasertib]; conditions: max 1 µM
Outline: as §1

AZD0156 = compound: CN(C)CCCOc1ccc(-c2ccc3ncc4c(c3c2)n(C2CCOCC2)c(=O)n4C)cn1 [AZD0156]
Outline: as §1

Dasatinib = compound: CC1=C(C(=CC=C1)Cl)NC(=O)C2=CN=C(S2)NC3=CC(=NC(=N3)C)N4CCN(CC4)CCO [Dasatinib]; conditions: max 2 µM
Outline: as §1

Olaparib = compound: O=C(c1cc(Cc2n[nH]c(=O)c3ccccc23)ccc1F)N1CCN(C(=O)C2CC2)CC1 [Olaparib]; conditions: max 10 µM
Outline: as §1

Selumetinib = compound: Cn1cnc2c(F)c(Nc3ccc(Br)cc3Cl)c(C(=O)NOCCO)cc21 [Selumetinib]
Outline: as §1

Capivasertib = compound: C1CN(CCC1(C(=O)N[C@@H](CCO)C2=CC=C(C=C2)Cl)N)C3=NC=NC4=C3C=CN4 [Capivasertib]
Outline: as §1

Palbociclib = compound: CC(=O)c1c(C)c2cnc(Nc3ccc(N4CCNCC4)cn3)nc2n(C2CCCC2)c1=O [Palbociclib]; conditions: max 10 µM
Outline: as §1

AZD7648 = compound: Cc1cc2ncnn2cc1Nc1ncc2c(n1)n(C1CCOCC1)c(=O)n2C [AZD7648]; conditions: max 10 µM
Outline: as §1

AZD1775 = compound: C=CCn1c(=O)c2cnc(Nc3ccc(N4CCN(C)CC4)cc3)nc2n1-c1cccc(C(C)(C)O)n1 [AZD1775]
Outline: as §1

AZD4320 = compound: CN(CC[C@H](CSC1=CC=CC=C1)NC2=C(C=C(C=C2)S(=O)(=O)NC(=O)C3=CC=C(C=C3)N4CCC(CC4)[C@H](C5=CC=CC=C5C6=CC=C(C=C6)Cl)O)S(=O)(=O)C(F)(F)F)CCO [AZD4320]; conditions: max 1 µM
Outline: as §1

Crizotinib = compound: C[C@@H](Oc1cc(-c2cnn(C3CCNCC3)c2)cnc1N)c1c(Cl)ccc(F)c1Cl [Crizotinib]; conditions: max 10 µM
Outline: as §1

SN-38 = compound: CCc1c2c(nc3ccc(O)cc13)-c1cc3c(c(=O)n1C2)COC(=O)[C@]3(O)CC [SN-38]; conditions: max 0.3 µM
Outline: as §1

AZD8186 = compound: C[C@@H](Nc1cc(F)cc(F)c1)c1cc(C(=O)N(C)C)cc2c(=O)cc(N3CCOCC3)oc12 [AZD8186]; conditions: max 3 µM
Outline: as §1

Savolitinib = compound: C[C@@H](c1ccc2nccn2c1)n1nnc2ncc(-c3cnn(C)c3)nc21 [Savolitinib]; conditions: max 1 µM
Outline: as §1

KG-1 (Acute Myeloid Leukemia)
IC50, cell viability 72 h (AZD5153): 0.216 µM
IC50, cell viability 72 h (Trametinib): > 1 µM
IC50, cell viability 72 h (Venetoclax): 0.55 µM
IC50, cell viability 72 h (SG3199): > 0.001 µM
IC50, cell viability 72 h (AZD5991): 0.0837 µM
IC50, cell viability 72 h (Alisertib): 0.774 µM
IC50, cell viability 72 h (AZD6738): 5.63 µM
IC50, cell viability 72 h (AZD2811): > 1 µM
IC50, cell viability 72 h (Taselisib): > 10 µM
IC50, cell viability 72 h (Lapatinib): > 10 µM
IC50, cell viability 72 h (AZD1390): > 0.3 µM
IC50, cell viability 72 h (Doxorubicin): > 1 µM
IC50, cell viability 72 h (Gefitinib): > 10 µM
IC50, cell viability 72 h (Prexasertib): 0.0458 µM
IC50, cell viability 72 h (AZD0156; max 3 µM): > 3 µM
IC50, cell viability 72 h (Dasatinib): > 2 µM
IC50, cell viability 72 h (Olaparib): > 10 µM
IC50, cell viability 72 h (Selumetinib; max 10 µM): > 10 µM
IC50, cell viability 72 h (Capivasertib; max 10 µM): > 10 µM
IC50, cell viability 72 h (Palbociclib): > 10 µM
IC50, cell viability 72 h (AZD7648): > 10 µM
IC50, cell viability 72 h (AZD1775; max 3 µM): 0.662 µM
IC50, cell viability 72 h (AZD4320): 0.0969 µM
IC50, cell viability 72 h (Crizotinib): > 10 µM
IC50, cell viability 72 h (SN-38): 0.0132 µM
IC50, cell viability 72 h (AZD8186): > 3 µM
IC50, cell viability 72 h (Savolitinib): > 1 µM

EKVX (Non-Small Cell Lung Carcinoma)
IC50, cell viability 72 h (Trametinib): 0.747 µM
IC50, cell viability 72 h (Venetoclax): > 1 µM
IC50, cell viability 72 h (SG3199): > 0.001 µM
IC50, cell viability 72 h (AZD5991): > 1 µM
IC50, cell viability 72 h (Alisertib): > 10 µM
IC50, cell viability 72 h (AZD6738): > 10 µM
IC50, cell viability 72 h (AZD2811): > 1 µM
IC50, cell viability 72 h (Taselisib): > 10 µM
IC50, cell viability 72 h (Doxorubicin): > 1 µM
IC50, cell viability 72 h (Prexasertib): > 1 µM
IC50, cell viability 72 h (AZD0156; max 1 µM): > 1 µM
IC50, cell viability 72 h (Olaparib): > 10 µM
IC50, cell viability 72 h (Selumetinib; max 3 µM): > 3 µM
IC50, cell viability 72 h (Capivasertib; max 3 µM): > 3 µM
IC50, cell viability 72 h (AZD7648): > 10 µM
IC50, cell viability 72 h (AZD1775; max 1 µM): > 1 µM
IC50, cell viability 72 h (AZD4320): > 1 µM
IC50, cell viability 72 h (SN-38): > 0.3 µM
IC50, cell viability 72 h (AZD8186): > 3 µM

MES-SA (Other Solid Carcinomas)
IC50, cell viability 72 h (AZD5153): > 1 µM
IC50, cell viability 72 h (Trametinib): > 1 µM
IC50, cell viability 72 h (Venetoclax): > 1 µM
IC50, cell viability 72 h (SG3199): > 0.001 µM
IC50, cell viability 72 h (AZD5991): > 1 µM
IC50, cell viability 72 h (Alisertib): 0.856 µM
IC50, cell viability 72 h (AZD6738): > 10 µM
IC50, cell viability 72 h (AZD2811): > 1 µM
IC50, cell viability 72 h (Taselisib): 1.18 µM
IC50, cell viability 72 h (Lapatinib): > 10 µM
IC50, cell viability 72 h (AZD1390): > 0.3 µM
IC50, cell viability 72 h (Doxorubicin): 0.268 µM
IC50, cell viability 72 h (Gefitinib): > 10 µM
IC50, cell viability 72 h (Prexasertib): 0.0801 µM
IC50, cell viability 72 h (AZD0156; max 3 µM): > 3 µM
IC50, cell viability 72 h (Dasatinib): > 2 µM
IC50, cell viability 72 h (Olaparib): > 10 µM
IC50, cell viability 72 h (Selumetinib; max 10 µM): > 10 µM
IC50, cell viability 72 h (Capivasertib; max 10 µM): > 10 µM
IC50, cell viability 72 h (Palbociclib): > 10 µM
IC50, cell viability 72 h (AZD7648): > 10 µM
IC50, cell viability 72 h (AZD1775; max 3 µM): 0.707 µM
IC50, cell viability 72 h (AZD4320): > 1 µM
IC50, cell viability 72 h (Crizotinib): > 10 µM
IC50, cell viability 72 h (SN-38): 0.0282 µM
IC50, cell viability 72 h (AZD8186): > 3 µM
IC50, cell viability 72 h (Savolitinib): > 1 µM

A172 (Glioblastoma)
IC50, cell viability 72 h (AZD5153): > 1 µM
IC50, cell viability 72 h (Trametinib): > 1 µM
IC50, cell viability 72 h (Venetoclax): > 1 µM
IC50, cell viability 72 h (SG3199): > 0.001 µM
IC50, cell viability 72 h (AZD5991): > 1 µM
IC50, cell viability 72 h (Alisertib): 1.42 µM
IC50, cell viability 72 h (AZD6738): 9.49 µM
IC50, cell viability 72 h (AZD2811): 0.708 µM
IC50, cell viability 72 h (Taselisib): > 10 µM
IC50, cell viability 72 h (Lapatinib): > 10 µM
IC50, cell viability 72 h (AZD1390): > 0.3 µM
IC50, cell viability 72 h (Doxorubicin): 0.189 µM
IC50, cell viability 72 h (Gefitinib): > 10 µM
IC50, cell viability 72 h (Prexasertib): 0.367 µM
IC50, cell viability 72 h (AZD0156; max 3 µM): > 3 µM
IC50, cell viability 72 h (Dasatinib): > 2 µM
IC50, cell viability 72 h (Olaparib): > 10 µM
IC50, cell viability 72 h (Selumetinib; max 10 µM): > 10 µM
IC50, cell viability 72 h (Capivasertib; max 10 µM): > 10 µM
IC50, cell viability 72 h (Palbociclib): > 10 µM
IC50, cell viability 72 h (AZD7648): > 10 µM
IC50, cell viability 72 h (AZD1775; max 3 µM): > 3 µM
IC50, cell viability 72 h (AZD4320): > 1 µM
IC50, cell viability 72 h (Crizotinib): > 10 µM
IC50, cell viability 72 h (SN-38): 0.0441 µM
IC50, cell viability 72 h (AZD8186): > 3 µM
IC50, cell viability 72 h (Savolitinib): > 1 µM
